Measurements as given in ChEMBL document CHEMBL1201862, “PubChem BioAssay data set” (2004).
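Growth conditions: 96-well plates. Treatment: test compound, 48 hours, 5 concentrations. Analysis: linear interpolation between bracketing concentrations; unreached endpoints set to highest concentration. At the GI50, growth is halved.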 Calls of active or inactive are those of the source. Rule as the data show it: active = GI50 up to about 1.1 µM and inactive = higher. Residues, ends and D or L forms follow the SMILES beside them. *: point of attachment. Ethyl(2-NMe3+) = C[N+](C)(C)CC*; Boc = CC(C)(C)OC(=O)*

Tests used:
Assay in all cases: growth of human tumour cells (NCI), 48 h
[1] = system: 786-0
[2] = system: A498
[3] = system: A549
[4] = system: ACHN
[5] = system: BT-549
[6] = system: CAKI-1
[7] = system: COLO 205
[8] = system: DU-145
[9] = system: HCC 2998
[10] = system: HCT-116
[11] = system: HCT-15
[12] = system: HL-60
[13] = system: HOP-62
[14] = system: HOP-92
[15] = system: HT-29
[16] = system: Hs-578T
[17] = system: IGROV-1
[18] = system: K562
[19] = system: KM12
[20] = system: LOX IMVI
[21] = system: M14
[22] = system: MCF7
[23] = system: MDA-MB-231
[24] = system: MDA-MB-435
[25] = system: MDA-N
[26] = system: MOLT-4
[27] = system: Malme-3M
[28] = system: NCI-H226
[29] = system: NCI-H23
[30] = system: NCI-H460
[31] = system: NCI-H522
[32] = system: NCI/ADR-RES
[33] = system: OVCAR-3
[34] = system: OVCAR-4
[35] = system: OVCAR-5
[36] = system: OVCAR-8
[37] = system: PC-3
[38] = system: RPMI-8226
[39] = system: RXF 393
[40] = system: SF-268
[41] = system: SF-295
[42] = system: SF-539
[43] = system: SK-MEL-28
[44] = system: SK-MEL-2
[45] = system: SK-MEL-5
[46] = system: SK-OV-3
[47] = system: SN12C
[48] = system: SNB-19
[49] = system: SNB-75
[50] = system: SW-620
[51] = system: T47D
[52] = system: TK-10
[53] = system: U-251
[54] = system: UACC-257
[55] = system: UACC-62
[56] = system: UO-31
[57] = system: EKVX

CC(NC(=O)C(Cc1ccc(OCC[N+](C)(C)C)cc1)NC(=O)OC(C)(C)C)C(=O)NC(Cc1ccccc1)C(=O)NCC(N)=O (stereo unspecified) (Boc-Y(Ethyl(2-NMe3+))AFG-NH2; configuration not given here)
GI50 [1]: 10.4 µM (inactive)
GI50 [2]: 13.4 µM (inactive)
GI50 [3]: 36.8 µM (inactive)
GI50 [4]: 22.1 µM (inactive)
GI50 [5]: 20.2 µM (inactive)
GI50 [6]: 87.1 µM (inactive)
GI50 [7]: 75.7 µM (inactive)
GI50 [8]: 36.1 µM (inactive)
GI50 [9]: 16.5 µM (inactive)
GI50 [10]: 34.9 µM (inactive)
GI50 [11]: > 100 µM
GI50 [12]: > 100 µM (inactive)
GI50 [13]: 2.44 µM (inactive)
GI50 [14]: 15.7 µM (inactive)
GI50 [15]: > 100 µM (inactive)
GI50 [16]: 22.4 µM (inactive)
GI50 [17]: 20.1 µM (inactive)
GI50 [18]: > 100 µM (inactive)
GI50 [19]: > 100 µM (inactive)
GI50 [20]: 30.4 µM (inactive)
GI50 [21]: 65.9 µM (inactive)
GI50 [22]: > 100 µM (inactive)
GI50 [23]: 2.75 µM (inactive)
GI50 [24]: > 100 µM (inactive)
GI50 [25]: > 100 µM (inactive)
GI50 [26]: > 100 µM (inactive)
GI50 [27]: 20.9 µM (inactive)
GI50 [28]: 22.7 µM (inactive)
GI50 [29]: 15.5 µM (inactive)
GI50 [30]: 70.5 µM (inactive)
GI50 [31]: 36.9 µM (inactive)
GI50 [32]: 36.9 µM (inactive)
GI50 [33]: 18.2 µM (inactive)
GI50 [34]: 38.1 µM (inactive)
GI50 [35]: 25.1 µM (inactive)
GI50 [36]: 12 µM (inactive)
GI50 [37]: > 100 µM (inactive)
GI50 [38]: > 100 µM (inactive)
GI50 [39]: 11.7 µM (inactive)
GI50 [40]: 10.1 µM (inactive)
GI50 [41]: 3.8 µM (inactive)
GI50 [42]: 11.4 µM (inactive)
GI50 [43]: > 100 µM (inactive)
GI50 [44]: 11.9 µM (inactive)
GI50 [45]: > 100 µM (inactive)
GI50 [46]: 10 µM (inactive)
GI50 [47]: 37.2 µM (inactive)
GI50 [48]: 13.2 µM (inactive)
GI50 [49]: 13.6 µM (inactive)
GI50 [50]: > 100 µM (inactive)
GI50 [51]: 43.8 µM (inactive)
GI50 [52]: 11.8 µM (inactive)
GI50 [53]: 3.24 µM (inactive)
GI50 [54]: 45.2 µM (inactive)
GI50 [55]: 25.9 µM (inactive)
GI50 [56]: 65.3 µM (inactive)

CC1=NN(c2ccccc2Cl)C2(C1)SCC(=O)N2c1nc2ccccc2s1 (stereo unspecified)
GI50 [1]: > 100 µM (inactive)
GI50 [2]: > 100 µM (inactive)
GI50 [3]: > 100 µM (inactive)
GI50 [4]: > 100 µM (inactive)
GI50 [5]: > 100 µM (inactive)
GI50 [6]: > 100 µM (inactive)
GI50 [7]: > 100 µM (inactive)
GI50 [8]: > 100 µM (inactive)
GI50 [57]: > 100 µM (inactive)
GI50 [9]: > 100 µM (inactive)
GI50 [10]: > 100 µM (inactive)
GI50 [11]: > 100 µM
GI50 [13]: > 100 µM (inactive)
GI50 [14]: > 100 µM (inactive)
GI50 [15]: > 100 µM (inactive)
GI50 [16]: > 100 µM (inactive)
GI50 [17]: > 100 µM (inactive)
GI50 [18]: > 100 µM (inactive)
GI50 [19]: > 100 µM (inactive)
GI50 [20]: > 100 µM (inactive)
GI50 [21]: > 100 µM (inactive)
GI50 [22]: > 100 µM (inactive)
GI50 [23]: > 100 µM (inactive)
GI50 [24]: > 100 µM (inactive)
GI50 [25]: > 100 µM (inactive)
GI50 [27]: > 100 µM (inactive)
GI50 [28]: > 100 µM (inactive)
GI50 [29]: > 100 µM (inactive)
GI50 [30]: > 100 µM (inactive)
GI50 [31]: > 100 µM (inactive)
GI50 [32]: > 100 µM (inactive)
GI50 [33]: > 100 µM (inactive)
GI50 [34]: > 100 µM (inactive)
GI50 [35]: > 100 µM (inactive)
GI50 [36]: > 100 µM (inactive)
GI50 [37]: > 100 µM (inactive)
GI50 [38]: > 100 µM (inactive)
GI50 [39]: > 100 µM (inactive)
GI50 [40]: > 100 µM (inactive)
GI50 [41]: > 100 µM (inactive)
GI50 [42]: > 100 µM (inactive)
GI50 [43]: > 100 µM (inactive)
GI50 [44]: > 100 µM (inactive)
GI50 [45]: > 100 µM (inactive)
GI50 [46]: > 100 µM (inactive)
GI50 [47]: > 100 µM (inactive)
GI50 [48]: > 100 µM (inactive)
GI50 [49]: > 100 µM (inactive)
GI50 [50]: > 100 µM (inactive)
GI50 [51]: > 100 µM (inactive)
GI50 [52]: > 100 µM (inactive)
GI50 [53]: > 100 µM (inactive)
GI50 [54]: > 100 µM (inactive)
GI50 [55]: > 100 µM (inactive)
GI50 [56]: > 100 µM (inactive)
